In patent publication US20080280860A1, “Use of Vitamin D Compounds to Treat Endometriosis” (BioXell S.p.A., priority 2005, published 2008):

Key:
[1] = tested on: Eutopic endometrium stromal cells; experiment: Proliferation of endometrial stromal cells in vitro (CyQuant), eutopic; assay type: cell-based; conditions: 1 uM-0.1 nM, 48-96 hours; FIG. 2A
Protocol: (§1) Tissue was gently minced into small pieces (1 to 2 mm^3) and incubated at 37° C. for 1 h with 0.1% type A collagenase. At the end of the incubation, single stromal cells were separated from large clumps of epithelium by a 10 min. period of differential sedimentation at unity gravity. The top 8 ml of medium, containing predominantly stromal cells, were then slowly removed and the cells were collected by centrifugation. The stromal-enriched fraction was washed twice in culture medium and allowed to adhere selectively to tissue culture dishes for 15 min.
(§2) Thereafter, nonattached epithelial cells still present were removed and a purified stromal preparation was obtained on the surface of the culture dishes.
The cells were maintained in DMEM supplemented with 10% Fetal Bovine Serum (SIGMA) and 100 U/ml penicillin, 100 ug/ml streptomycin (GIBCO cat. no. 15140-122).
When the stromal cells were grown to confluence, were washed in PBS and then trypsinized using 1× trypsin/EDTA solution (PromoCell cat. no. C-41002). […] The proliferation was determined with CyQuant Cell Proliferation Assay (Molecular Probe cat. no. C7026). […]
The fluorescence was determined using a fluorescence microplate reader with filters appropriate for ˜480 nm excitation and ˜520 nm emission.

[2] = tested on: stromal cells; experiment: Real Time PCR for gene expression quantification in cultured cells; assay type: cell-based; conditions: 1 uM and 0.1 uM versus untreated
Protocol: as §1, §2
Cells were incubated at 37° C. in 3% FBS DMEM (without Compound A, with Compound A at 1 uM concentration or with Compound A at 0.1 uM concentration) or 10% FBS DMEM (without Compound A, with Compound A at 1 uM concentration or with Compound A at 0.1 uM concentration). After 4 or 8 hours of incubation cells were trypsinized and collected as a cell pellet.
For total RNA extraction it was used the RNeasy Mini Kit QIAGEN (cat. no. 74106) briefly described below.
Cells were distrupted by addition of Buffer RLT and the lysate was loaded onto a QlAshredder spin column (QIAGEN cat. no. 79656) placed in a 2 ml collection tube and centrifuged for 2 min at maximum speed. A volume of 70% ethanol was added to the homogenized lysate. The sample was loaded on an RNeasy mini column placed in a 2 ml collection tube and centrifuged for 15 sec at >10000 rpm. The RNA bound to the column was digested with a DNase treatment. The column was washed with Buffer RW1 and centrifuged for 15 sec at >10000 rpm. The sample was incubated with DNase I mix (RNase-Free Dnase Set QIAGEN cat. no. 79254) at room temperature for 15 min. […] RNA concentration was evaluated by NanoDrop Spectrophotometer […]
Real Time PCR was performed by using ABI PRISM 7000 Sequence Detection System (Applied Biosystems). […] The genes analysed included Vitamin D Receptor (VDR), Cytochrome P450 (CYP24), Vascular Endothelial Growth Factor (VEGF), Estrogen Receptor alpha (ERα), Estrogen Receptor beta (ERβ), Progesterone Receptor (PR), Aromatase (CYP19), Cyclooxygenase type 2 (COX-2), Interleukin-8 (IL-8), Tumor Necrosis Factor alpha (TNF α), Caspase-3 (CASP3), Caspase-6 (CASP6), Ki-67 Nuclear Antigen (Ki-67).
Samples were incubated 2 min at 50° C., 10 min at 95° C. and amplified for 40 cycles at 95° C. for 15 sec (denaturation) and at 60° C. for 1 min (annealing/extension). The amount of gene expression was normalized to rRNA 18S gene expression and the comparative CT methods (User Bulletin #2 ABI PRISM 7000 Sequence Detection System) was used for relative quantitation.

C=C1/C(=C\C=C2/CCC[C@]3(C)C([C@@H](C)C/C=C/C(O)(CC)CC)=CC[C@@H]23)C[C@@H](O)C[C@@H]1F [Compound A, 1-alpha-fluoro-25-hydroxy-16,23E-diene-26,27-bishomo-20-epi-cholecalciferol]
cell proliferation, Eutopic endometrium [1]: reduction in cell proliferation | VDR expression ([2]; FIG. 3A): Little or no change | VEGF expression ([2]; FIG. 3B): Little or no change | Cyp24 expression ([2]; FIG. 3C): marked upregulation | Cyp19 expression ([2]; FIG. 3D): Little or no change
